Like-named read-outs stand apart in the source and are kept apart here.
Columns and labels:
[1] = compared with MTX; cited from earlier work
K562 cells = experiment: Growth inhibition of human leukemia cells (K562); assay type: cell-based; conditions: for IC50: Homo sapiens; for times more compound as compared with MTX required to inhibit cell growth by 50%: relative to MTX
Procedure: The IC50 value is the drug concentration which inhibits cancer cell growth by 50%.
Two suspensions of human leukemia cell lines were employed in this study. The myelogenous leukemia cell line K562 was cultured in RPMI 1640 (JRH Biosciences) containing 10% filtered fetal bovine serum (FBS; Irvine Scientific), and the lymphoblastic leukemia cell line CCRF/CEM was cultured in RPMI 1640 containing 20% FBS, 100 U/ml penicillin (GIBCO Laboratories, Grand Island, N.Y.), and 100 μg/ml streptomycin (GIBCO). Cells were maintained at 37° C. with 5% CO2 in air, and were cultured using standard sterile tissue culture techniques.
Prior to toxicity studies, cells were maintained 48 hours in the absence of added inhibitor. Logarithmically growing cells were inoculated at 1×10^4 cells/ml in tissue culture grade Petri dishes (35×10 mm), and, following a suitable recovery period, were treated with chemical agents. Inhibitor concentrations ranging from 10^-12 to 10^-4 M were added to the cultures except for a control culture, which contained no added drug. Cell counts were performed by hematometer counting during 120 hours of continuous exposure to the drugs. The IC50 value was obtained by interpolation from graphs of percent growth inhibition plotted against drug concentration.

CCRF/CEM Cells = experiment: Growth inhibition of human leukemia cells (CCRF/CEM); assay type: cell-based; conditions: 120 hours continuous exposure
Procedure: Two suspensions of human leukemia cell lines were employed in this study. […] Cells were maintained at 37° C. with 5% CO2 in air, and were cultured using standard sterile tissue culture techniques.
Prior to toxicity studies, cells were maintained 48 hours in the absence of added inhibitor. […] Inhibitor concentrations ranging from 10^-12 to 10^-4 M were added to the cultures except for a control culture, which contained no added drug. Cell counts were performed by hematometer counting during 120 hours of continuous exposure to the drugs. The IC50 value was obtained by interpolation from graphs of percent growth inhibition plotted against drug concentration.

Chicken Liver DHFR = target: T1, Chicken Liver DHFR (Gallus gallus, UniProt P00378); experiment: Inhibition of DHFR, spectrophotometric assay (chicken liver DHFR); assay type: biochemical; conditions: for IC50: chicken liver DHFR, pH 7.0, read-out: ID50 (drug concentration which inhibits enzyme activity by 50%)
T1 construct: purchased Sigma Chemical Co. (St. Louis, Mo.); host or cells: chicken liver
T1 sequence (P00378 1-189): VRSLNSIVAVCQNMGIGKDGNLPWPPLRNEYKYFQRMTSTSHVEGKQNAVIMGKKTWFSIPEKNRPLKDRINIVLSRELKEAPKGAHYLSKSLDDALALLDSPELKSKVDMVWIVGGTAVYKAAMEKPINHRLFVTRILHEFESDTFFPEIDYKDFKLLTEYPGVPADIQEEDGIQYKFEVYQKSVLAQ
Procedure: (§1) Tests were conducted to determine the ID50 value for methotrexate analogs of the present invention. The ID50 value is the drug concentration which inhibits enzyme activity by 50%. […] DHFR activity was measured as the decrease over time in absorbance at 340 nm.
(§2) DHFR was diluted prior to each experiment in 50 mM potassium phosphate buffer (pH 7.0) containing 0.1 mM NADPH and 0.1% BSA.
(§3) Inhibition studies were carried out by adding to a 1.0 ml cuvette the assay solution containing all components except dihydrofolate, and then incubating the solution for 2 minutes at room temperature. The absorbance of the solution at 340 nm was recorded immediately following the addition of dihydrofolate. The mixtures were then incubated at room temperature for 5 minutes, and the absorbance at 340 nm was again recorded. […] ID50 values were determined by interpolation from graphs of percent of inhibition plotted against drug concentration.

L. casei DHFR = target: T2, L. casei DHFR (Lacticaseibacillus casei, UniProt P00381); experiment: Inhibition of DHFR, spectrophotometric assay (L. casei DHFR); assay type: biochemical; conditions: pH 7.0, read-out: ID50 (drug concentration which inhibits enzyme activity by 50%)
T2 construct: purchased New England Enzyme Center (Boston, Mass.); host or cells: MTX-resistant L. casei
T2 sequence (P00381 whole entry): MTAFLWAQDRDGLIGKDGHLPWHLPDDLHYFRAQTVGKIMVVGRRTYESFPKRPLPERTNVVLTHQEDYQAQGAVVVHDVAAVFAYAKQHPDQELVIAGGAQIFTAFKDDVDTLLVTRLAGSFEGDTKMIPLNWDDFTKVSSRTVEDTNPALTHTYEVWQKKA
Procedure: as §1, §2, §3

[2] = Metabolism in rabbit liver homogenate (formation of 7-OH-MTX); assay type: in vitro ADME, New Zealand white rabbit; conditions: pH 7.6
Procedure: For these experiments, freshly isolated liver from a New Zealand white rabbit was homogenized in 400 ml of cold buffer of pH 7.6 consisting of 10 mM Tris-HCl, 25 mM sucrose and 10 mM MgCl2. The homogenate was centrifuged at 1000×g for 20 minutes at 4° C., and the resulting pellet was resuspended in about 14 ml of the same buffer. […] Two ml samples of the homogenate were removed at 10 minute intervals. Samples were boiled S minutes to denature the proteins, and then centrifuged to pelletize cell debris. To determine inhibitor and 7-OH-MTX levels, 100 μl of the supernatant was analyzed by HPLC. For HPLC analysis, a Perkin-Elmer 410 LC solvent delivery system and a 5-μm IBM ODS column (4.1×250 mm) with a Guard column were employed. The mobile phase consisted of 0.1M monobasic sodium phosphate and 0.1M Tris-HCl in methanol at a final pH of 7.6. […] Detector output was recorded and integrated by a Perkin-Elmer LCI 100 integrator.

[3] = cited from earlier work
[4] = K562 cells, 120 hours continuous exposure, read-out: IC50

| Structure (SMILES) | IC50 (K562 cells; [4]) | IC50 (CCRF/CEM Cells) | IC50 (Chicken Liver DHFR) | IC50 (L. casei DHFR) | also measured |
| --- | --- | --- | --- | --- | --- |
| CN(Cc1cnc2nc(N)nc(N)c2n1)c1c(F)cc(C(=O)N[C@@H](CCC(=O)O)C(=O)O)cc1F [3',5'-difluoroMTX] |  |  |  |  | antifolate antagonism / biological activity, in words [1]: little or no increase in biological activity as compared with MTX |
| CNc1nc2nc(N)nc(N)c2nc1CN(C)c1ccc(C(=O)N[C@@H](CCC(=O)O)C(=O)O)cc1 [7-CH3 NH-MTX, 4-amino-7-methylamino-N-10-methylpteroylglutamic acid] | 300 nM | 300 nM | 300 nM | 200 nM | times more compound as compared with MTX required to inhibit cell growth by 50% (K562 cells; K562 and CCRF/CEM cells): 25-40 times |
| CN(Cc1nc2c(N)nc(N)nc2nc1Cl)c1ccc(C(=O)N[C@@H](CCC(=O)O)C(=O)O)cc1 [7-Cl-MTX] | 10000 nM | 10000 nM | 20000 nM | 50000 nM |  |
| CN(Cc1nc2c(N)nc(N)nc2nc1F)c1ccc(C(=O)N[C@@H](CCC(=O)O)C(=O)O)cc1 [7-F-MTX] | 850 nM | 5000 nM | 1500 nM | 500 nM |  |
| CN(Cc1nc2c(N)nc(N)nc2nc1N=[N+]=[N-])c1ccc(C(=O)N[C@@H](CCC(=O)O)C(=O)O)cc1 [7-N3 -MTX] | 1000 nM | 2000 nM | 400 nM | 200 nM |  |
| CN(Cc1nc2c(N)nc(N)nc2nc1N)c1ccc(C(=O)N[C@@H](CCC(=O)O)C(=O)O)cc1 [7-NH2 -MTX, 4,7-diamino-N-10-methylpteroylglutamic acid] | 50 nM | 76 nM | 140 nM | 168 nM | ability to inhibit growth of leukemia cell lines, in words (K562 cells; K562 and CCRF/CEM cells): still effective at inhibiting the growth of the leukemia cell lines; times more compound as compared with MTX required to inhibit cell growth by 50% (K562 cells; K562 and CCRF/CEM cells): 6-7 times; effectiveness as DHFR inhibitor, in words (Chicken Liver DHFR; chicken liver and L. casei DHFR): still relatively effective as a DHFR inhibitor; metabolism to 7-OH-MTX, in words [2]: not even a slight metabolism of 7-NH2 -MTX to 7-OH-MTX could be detected over an hour |
| CC(C)Nc1nc2nc(N)nc(N)c2nc1CN(C)c1ccc(C(=O)N[C@@H](CCC(=O)O)C(=O)O)cc1 [7-NHCH(CH3)2 -MTX] | 500 nM | 5000 nM | 500 nM | 750 nM |  |
| CCOc1nc2nc(N)nc(N)c2nc1CN(C)c1ccc(C(=O)N[C@@H](CCC(=O)O)C(=O)O)cc1 [7-OC2 H5 -MTX] | 850 nM | 4000 nM | 2000 nM | 1200 nM |  |
| COc1nc2nc(N)nc(N)c2nc1CN(C)c1ccc(C(=O)N[C@@H](CCC(=O)O)C(=O)O)cc1 [7-OCH3 -MTX] | 450 nM | 4500 nM | 750 nM | 1000 nM |  |
| CC(C)Oc1nc2nc(N)nc(N)c2nc1CN(C)c1ccc(C(=O)N[C@@H](CCC(=O)O)C(=O)O)cc1 [7-OCH(CH3)2 -MTX] | 1000 nM | 6000 nM | 200 nM | 670 nM |  |
| CN(Cc1nc2c(N)nc(N)nc2nc1P(=O)(O)O)c1ccc(C(=O)N[C@@H](CCC(=O)O)C(=O)O)cc1 [7-P(O)(OH)2 -MTX] | 6000 nM |  | 10000 nM | 15000 nM |  |
| Cc1nc2nc(N)nc(N)c2nc1CN(C)c1ccc(C(=O)N[C@@H](CCC(=O)O)C(=O)O)cc1 [7-methyl substituted MTX] |  |  |  |  | antifolate antagonism / biological activity, in words [1]: impaired antifolate antagonism |
| CN(Cc1cnc2nc(N)nc(N)c2n1)c1ccc(C(=O)N[C@@H](CCC(=O)O)C(=O)O)cc1 [MTX] |  | 11 nM |  |  | IC50 (K562 cells; K562, 120 h): 8 nM; metabolism to 7-OH-MTX, in words ([2]; over an hour, 37° C.): substantially metabolized to 7-OH-MTX within an hour; metabolised at 10 min ([2]; rabbit, liver homogenate): ~50%; remaining at 1 h ([2]; rabbit, liver homogenate): < 25%; renal and hepatic toxicity, in words ([3]; high dose regimen): associated with renal and hepatic toxicity; conversion in vivo, in words ([3]; man and monkeys): converted in vivo to 7-hydroxymethotrexate (7-OH-MTX) |
